Data set [1] deals with H3 influenza viruses. The conditions noted are these: cited from earlier work.
Data set [2] deals with Influenza H1N1 virus. The data set is described as follows: Viral cytopathic effect (CPE) assay. The class given is cell-based, Influenza A (H1N1). The following applies: read-out: CPE_EC50. Here is the method: Cells and viruses. Madin-Darby canine kidney cell (MDCK) was purchased from American type culture collection (ATCC) and was maintained in minimal essential medium (MEM) containing 10% fetal bovine serum and antibiotics. Influenza A/Weiss/43 (H1N1), A/PR/8/34 (H1N1), and A/Hongkong/8/68 (H3N2) were purchased from ATCC and propagated in 10-day-old embryonated chicken eggs at 37° C. Virus was harvested 48 h after inoculation as pooled allantoic fluid. After a brief centrifugation (3,000 rpm at room temperature for 20 min) and virus titer measurement by a hemagglutination test, virus was aliquoted and stored at a −80° C. freezer.
Viral cytopathic effect (CPE) assay: To measure anti-influenza activity of compounds, MDCK cells were seeded into 96-well plates at a density of 5,000 cells per well. Next day, compounds were serially half-log diluted with Gibco SFM containing trypsin. Compounds and 50 pfu of virus were added into corresponding wells to make m.o.i at 0.01 and a final trypsin concentration of 2.5 μg/ml. The testing plates also contained medium control, cell control, virus control, and compound toxicity control. After a 3-day treatment, cell viability was measured with a MTT (3-(4,5-dimethylthiazol-2-yl)-2,5-diphenyltetrazolium bromide) method. Briefly, 20 μl of MTT diluted in culture medium was added into each wells and incubated at 37° C. for 4 hours. Reduced MTT (formazan) was extracted with acidic isopropanol and absorbance at wavelengths of 570 nm and 630 nm (OD570 and OD630) was read on a microtiter plate reader. After subtraction of background OD values, dose response curves of half-log concentration vs. percent protection were generated, on which half maximal effective concentration (EC50) and half maximal toxic concentration (CC50) were calculated.

Data set [3] deals with MDCK cells. The following applies: dog, 3 day.

Each structure is given as a SMILES string. Where two headings read alike, the source gives them in different places. Bounds are passed on as bounds.

The values below come from patent US20110195979A1, “COMPOUNDS FOR THE TREATMENT AND PREVENTION OF INFLUENZA” (priority 2010, published 2011).

Consider `CC(C)(C)c1cc(O)ccc1O` [TBHQ, tert-butyl hydroquinone], for which, in data set [1], the inhibition of fusion entry is on record as “inhibits fusion”.

For the molecule `CC1(C)CC(O)CC(CNc2cc(F)cc(C(F)(F)F)c2)C1` (single isomer, unassigned) [Example IIi-1/2 Isomer 2, (trans-1,5)-5-[(3-fluoro-5-trifluoromethyl-phenylamino)-methyl]-3,3-dimethyl-cyclohexanol], the EC50 in data set [2] (H1N1, MDCK cells, m.o.i 0.01, 3-day treatment, MTT OD, mean of triplicate experiments) was less than 0.31 µM. The IC50 in data set [3] is 16.8 µM. For `CC1(C)CC(O)CC(CNc2cc(F)cc(C(F)(F)F)c2)C1` (single isomer, unassigned) [Example IIi-1/2 Isomer 1, (cis-1,5)-5-[(3-Fluoro-5-trifluoromethyl-phenylamino)-methyl]-3,3-dimethyl-cyclohexanol], the EC50 in data set [2] (Influenza A virus, H1N1, MDCK, 72 h) was less than 0.31 µM. In addition, it took 8.16 µM to reach half-maximal inhibition in data set [3] (IC50).

As a reminder, the IC50 is the concentration at which inhibition is half-maximal. Low values mean greater potency, high ones weaker potency.
